Laboratory results as given in patent US20110262360A1, “Compositions Comprising Enzyme-Cleavable Phenol-Modified Opioid Prodrugs and Inhibitors Thereof” (priority 2010, published 2011).
“And” between values parts separate entries of the source, which are not always exact repeats. Equal entries are not always repeated. “Also recorded” adds a separate entry of the source. Where two headings read alike, the source gives them in different places.

Tests used:
[1] = target: T1, trypsin from bovine pancreas (Bos taurus, UniProt P00760); assay: In vitro trypsin conversion of prodrugs to hydromorphone and inhibition by trypsin inhibitor
T1 sequence (P00760 24-246): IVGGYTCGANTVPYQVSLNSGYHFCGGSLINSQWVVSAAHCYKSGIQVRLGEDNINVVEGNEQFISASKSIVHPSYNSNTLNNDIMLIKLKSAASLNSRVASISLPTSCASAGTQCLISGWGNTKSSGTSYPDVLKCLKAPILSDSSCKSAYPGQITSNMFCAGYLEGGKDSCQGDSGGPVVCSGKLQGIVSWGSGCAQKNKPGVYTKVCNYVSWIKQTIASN
Method: The reactions were conducted at 37° C. for 24 hr. Samples were collected at specified time points, transferred into 0.5% formic acid in acetonitrile to stop trypsin activity and stored at less than −70° C. until analysis by LC-MS/MS.
The results are expressed as half-life of prodrug when exposed to trypsin (i.e., Prodrug trypsin half-life) in hours and rate of formation of HM per unit of trypsin.

[2] = PC-3 20 mg/kg PO
[3] = for Cmax of hydromorphone in rat plasma / Tmax of hydromorphone in rat plasma: PC-3 20 mg/kg PO
[4] = Oral administration of Compound PC-2 and SBTI to rats: hydromorphone in plasma; details: for Cmax of hydromorphone in rat plasma: PC-2 20 mg/kg PO
[5] = PC-4 20 mg/kg PO
[6] = for Cmax of HM in rat plasma / Tmax of HM in rat plasma: PC-4 20 mg/kg PO
[7] = Oral administration of Compound PC-1 and BBSI inhibitor to rats: hydromorphone in blood; details: PC-1 20 mg/kg PO
[8] = Oral administration of Compound PC-1 and SBTI trypsin inhibitor to rats: hydromorphone in blood; details: for Cmax of hydromorphone in rat blood: PC-1 20 mg/kg PO
[9] = Oral administration of Compound PC-1 and SBTI in the presence of ovalbumin to rats: hydromorphone in plasma; details: for Cmax of hydromorphone in rat plasma: PC-1 20 mg/kg PO; for plasma Tmax of hydromorphone: rats; for Effect on Compound PC-1's ability to release hydromorphone: rats PO, PC-1 20 mg/kg with ovalbumin and/or SBTI
Method: In an effort to understand the role of SBTI, ovalbumin was used as a non-trypsin inhibitor protein control. Albumin from chicken egg white (ovalbumin) (Catalog No. A7641, Grade VII, lyophilized powder, Sigma-Aldrich) was dissolved in saline.

trypsin = target: T2, trypsin (Bos taurus, UniProt P00760); assay: In vitro IC50, modified trypsin assay; format: biochemical
T2 sequence (P00760 24-246): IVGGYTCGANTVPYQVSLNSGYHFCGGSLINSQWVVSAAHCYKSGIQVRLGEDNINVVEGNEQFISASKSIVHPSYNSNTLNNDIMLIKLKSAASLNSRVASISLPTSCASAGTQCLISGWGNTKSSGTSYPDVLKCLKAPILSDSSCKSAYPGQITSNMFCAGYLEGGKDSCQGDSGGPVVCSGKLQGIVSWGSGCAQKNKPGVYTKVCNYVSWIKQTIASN

[10] = No trypsin inhibitor, 0.761 mM prodrug, 37° C., Tris pH 8

## CCN(CCNC(=O)[C@H](CCCCN)NC(=O)CC(=O)O)C(=O)Oc1ccc2c3c1O[C@H]1C(=O)CC[C@H]4[C@@H](C2)N(C)CC[C@]314 [Compound PC-5, [2-((S)-2-malonylamino-4-amino-pentanoylamino)-ethyl]-ethyl-carbamic acid hydromorphone ester]
[1]; [10]
  Rate of HM formation, umols/h/umol trypsin Average ± sd: 106 ± 2 umols/h/umol trypsin

## CC(=O)N[C@@H](CCCCN)C(=O)NCCN(C)C(=O)Oc1ccc2c3c1OC1C(=O)CCC4C(C2)N(C)CCC314 (stereo partly drawn) [Compound PC-3, (S)-2-Acetylamino-6-amino-hexanoic acid (2-methylamino-ethyl)-amide hydromorphone ester]
[2]; Compound 101 0 mg/kg
  Cmax of HM in rat plasma: 9.0 ± 3.1 ng/mL
  Tmax of HM in rat plasma: 2.3 h
[2]; Compound 101 10 mg/kg
  Cmax of HM in rat plasma: 3.8 ± 2.9 ng/mL
  Tmax of HM in rat plasma: 3.5 h
[3]; SBTI 0 mg/kg
  Cmax of hydromorphone in rat plasma: 9.0 ± 3.1 ng/mL
  Tmax of hydromorphone in rat plasma: 2.3 h
[3]; SBTI 500 mg/kg
  Cmax of hydromorphone in rat plasma: 2.3 ± 1.7 ng/mL
  Tmax of hydromorphone in rat plasma: 7.3 h

## CCN(CCNC(=O)C(CCCNC(=N)N)NC(=O)CC(=O)O)C(=O)Oc1ccc2c3c1OC1C(=O)CCC4C(C2)N(C)CCC314 (stereo not drawn) [Compound PC-6, [2-(2-Malonyl-5-guanidino-pentanoylamino)-ethyl]-ethyl-carbamic acid hydromorphone ester]
[1]; [10]
  Rate of HM formation, umols/h/umol trypsin Average ± sd: 262 ± 11 umols/h/umol trypsin

## CN(CCNC(=O)[C@@H](N)CCCNC(=N)N)C(=O)Oc1ccc2c3c1OC1C(=O)CCC4C(C2)N(C)CCC314 (stereo partly drawn) [Compound PC-2, [2-((S)-2-amino-5-guanidino-pentanoylamino)-ethyl]-methyl-carbamic acid hydromorphyl ester]
[4]; SBTI 0 mg/kg
  Cmax of hydromorphone in rat plasma: 14.2 ± 2.6 ng/mL
[4]; SBTI 500 mg/kg
  Cmax of hydromorphone in rat plasma: 7.3 ± 3.5 ng/mL

## CCN(CCNC(=O)[C@H](CCCNC(=N)N)NC(C)=O)C(=O)Oc1ccc2c3c1OC1C(=O)CCC4C(C2)N(C)CCC314 (stereo partly drawn) [Compound PC-4, [2-((S)-2-Acetylamino-5-guanidino-pentanoylamino)-ethyl]-ethyl-carbamic acid hydromorphone ester]
[5]; Compound 101 0 mg/kg, n = 7
  Cmax of HM in rat plasma: 7.7 ± 2.3 ng/mL
  Tmax of HM in rat plasma: 2.3 h
[5]; Compound 101 10 mg/kg, n = 4
  Cmax of HM in rat plasma: 4.8 ± 1.4 ng/mL
  Tmax of HM in rat plasma: 6.0 h
[6]; SBTI 0 mg/kg, n = 7
  Cmax of HM in rat plasma: 7.7 ± 2.3 ng/mL
  Tmax of HM in rat plasma: 2.3 h
[6]; SBTI 500 mg/kg, n = 4
  Cmax of HM in rat plasma: 7.5 ± 2.1 ng/mL
  Tmax of HM in rat plasma: 6.5 h
[1]; [10]
  Rate of HM formation, umols/h/umol trypsin Average ± sd: 322 umols/h/umol trypsin and 243 ± 1 umols/h/umol trypsin
[1]; With trypsin inhibitor 3,089 uM Compound 109
  Rate of HM formation, umols/h/umol trypsin Average ± sd: 3.27 ± 1.87 umols/h/umol trypsin

## CC(=O)NC(CCCNC(=N)N)C(=O)NCCN(C)C(=O)Oc1ccc2c3c1OC1C(=O)CCC4C(C2)N(C)CCC314 (stereo not drawn) [Compound PC-1, Hydromorphone 3-(N-methyl-N-(2-N′-acetylarginylamino)) ethylcarbamate]
[7]; BBSI 0 mg/kg, n = 4
  Cmax of hydromorphone in rat blood: 16.5 ± 5.3 ng/mL
[7]; BBSI 100 mg/kg, individual rat, blood
  Cmax of rat not included in n = 3 analysis: 43 ng/mL
[7]; BBSI 100 mg/kg, n = 3 (3 of the 4 rats)
  Cmax of hydromorphone in rat blood: 10.6 ± 5.9 ng/mL
[7]; BBSI 100 mg/kg, n = 4
  Cmax of hydromorphone in rat blood: 18.7 ± 17.0 ng/mL
[7]; BBSI 100 mg/kg, the 3 other rats, blood
  Cmax range of other rats: 6.8 to 17 ng/mL
[8]; SBTI 0 mg/kg
  Cmax of hydromorphone in rat blood: 16.5 ± 5.3 ng/mL
[8]; SBTI 10 mg/kg
  Cmax of hydromorphone in rat blood: 8.9 ± 1.8 ng/mL
[8]; SBTI 100 mg/kg
  Cmax of hydromorphone in rat blood: 6.0 ± 4.0 ng/mL
[8]; SBTI 500 mg/kg
  Cmax of hydromorphone in rat blood: <5 ng/mL
[8]; SBTI 1000 mg/kg
  Cmax of hydromorphone in rat blood: <5 ng/mL
[9]; OVA 0 mg/kg, SBTI 0 mg/kg
  Cmax of hydromorphone in rat plasma: 13.3 ± 3.7 ng/mL
[9]; OVA 20 mg/kg, SBTI 0 mg/kg
  Cmax of hydromorphone in rat plasma: 11.0 ± 5.4 ng/mL
[9]; OVA 100 mg/kg, SBTI 0 mg/kg
  Cmax of hydromorphone in rat plasma: 9.7 ± 3.1 ng/mL
[9]; OVA 500 mg/kg, SBTI 0 mg/kg
  Cmax of hydromorphone in rat plasma: 11.6 ± 2.5 ng/mL
[9]; OVA 500 mg/kg, SBTI 500 mg/kg
  Cmax of hydromorphone in rat plasma: 1.9 ± 0.9 ng/mL
[9]; OVA 1000 mg/kg, SBTI 0 mg/kg
  Cmax of hydromorphone in rat plasma: 10.3 ± 3.5 ng/mL
[9]; 20 mg/kg Compound PC-1 alone
  plasma Tmax of hydromorphone: 2.3 h
[9]; 20 mg/kg Compound PC-1 with 500 mg/kg OVA and 500 mg/kg SBTI
  plasma Tmax of hydromorphone: 8.0 h
[1]; [10]
  Rate of HM formation, umols/h/umol trypsin Average ± sd: 230 ± 8 umols/h/umol trypsin

B1: SBTI: trypsin inhibitor from Glycine max (soybean) (Catalog No. 93620, ˜10,000 units per mg, Sigma-Aldrich) (protein, UniProt P01070 25-205, looked up)
Trypsin inhibitor A: DFVLDNEGNPLENGGTYYILSDITAFGGIRAAPTGNERCPLTVVQSRNELDKGIGTIISSPYRIRFIAEGHPLSLKFDSFAVIMLCVGIPTEWSVVEDLPEGPAVKIGENKDAMDGWFRLERVSDDEFNNYKLVFCPQQAEDDKCGDIGISIDHDDGTRRLVVSKNKPLVVQFQKLDKESL
[8]; rats PO, PC-1 20 mg/kg with 10, 100, 500 or 1000 mg/kg SBTI
  Effect of SBTI on Compound PC-1's ability to release hydromorphone: attenuates Compound PC-1's ability to release hydromorphone in a dose-dependent manner that can approach approximately 100% attenuation at higher SBTI concentrations; also recorded: suppresses Cmaxand delays Tmax
trypsin
  IC50: 270 nM
[4]; rats PO, PC-2 20 mg/kg with 500 mg/kg SBTI
  Effect of SBTI on Compound PC-2's ability to release hydromorphone: attenuates Compound PC-2's ability to release hydromorphone, both with respect to suppressing Cmaxand delaying Tmax
[3]; rats PO, PC-3 20 mg/kg with 500 mg/kg SBTI
  Effect of SBTI on Compound PC-3's ability to release hydromorphone: attenuates Compound PC-3's ability to release hydromorphone, both with respect to suppressing Cmaxand delaying Tmax
[9]
  Effect on Compound PC-1's ability to release hydromorphone: suppresses Cmaxand delays Tmax of such hydromorphone in plasma, even in the presence of ovalbumin; also recorded: acting specifically by inhibiting trypsin rather than in a non-specific manner
[6]; rats PO, PC-4 20 mg/kg with 500 mg/kg SBTI
  Effect of SBTI on Compound PC-4's ability to release hydromorphone: attenuates Compound PC-4's ability to release hydromorphone, at least with respect to delaying Tmax

B2: ovalbumin: Albumin from chicken egg white, used as a non-trypsin inhibitor protein control (protein, UniProt P01012 2-386, looked up)
Ovalbumin: GSIGAASMEFCFDVFKELKVHHANENIFYCPIAIMSALAMVYLGAKDSTRTQINKVVRFDKLPGFGDSIEAQCGTSVNVHSSLRDILNQITKPNDVYSFSLASRLYAEERYPILPEYLQCVKELYRGGLEPINFQTAADQARELINSWVESQTNGIIRNVLQPSSVDSQTAMVLVNAIVFKGLWEKAFKDEDTQAMPFRVTEQESKPVQMMYQIGLFRVASMASEKMKILELPFASGTMSMLVLLPDEVSGLEQLESIINFEKLTEWTSSNVMEERKIKVYLPRMKMEEKYNLTSVLMAMGITDVFSSSANLSGISSAESLKISQAVHAAHAEINEAGREVVGSAEAGVDAASVSEEFRADHPFLFCIKHIATNAVLFFGRCVSP
[9]
  Effect on Compound PC-1's ability to release hydromorphone: does not significantly affect Compound PC-1's ability to release hydromorphone
